# Measured values from US7736881B2, “Antibacterial and herbicidal compounds and system for screening the same” (University of Utah Research Foundation, priority 2000, dated 2010).
# “Also recorded” adds a separate entry of the source.
# How the values were obtained:
# [1] = system: Strain JC7623 dxs::pCAT53-3 transformed with pLME10 (R. capsulatus dxsB in pET11-A); experiment: Screen for antimicrobial agent using strain JC7623 dxs::pCAT53-3 transformed with pLME10 (plate growth); assay type: cell-based, E. coli
# [2] = system: Strain RMC25 electroporated with pLME10 (R. capsulatus dxsB in pET11-A); experiment: Screen for antimicrobial agent using strain RMC25 electroporated with pLME10 (plate growth); assay type: cell-based, S. typhimurium
# [3] = LB/kan/ME/fosmidomycin, fosmidomycin ~4 μg/mL, ME 50 mg/L, after 1 day
# [4] = after 2.5 days, fosmidomycin ~4 μg/mL, ME 50 mg/L
structure (smiles),measurement,setting,value
O=CN(O)CCCP(=O)(O)O [fosmidomycin],growth on Plate F,[1],microcolonies
same,growth on plate F compared with plate C (LB/kan/MVA/arabinose without fosmidomycin),[1],equal
same,growth on Plate E,"[1]; LB/ka/IPTG/fosmidomycin, fosmidomycin ~4 μg/mL, IPTG 1 mM, after 2.5 days",no growth
same,growth on Plate G,[1]; [3],colonies
same,growth on plate G compared with plate D (LB/kan/ME without fosmidomycin),[1]; [4],equal
same,growth on Plate F,[2],colonies
same,growth on plate F compared with plate C (LB/kan/MVA/arabinose without fosmidomycin),[2],equal
same,growth on Plate E,"[2]; LB/kan/IPTG/fosmidomycin, fosmidomycin ~4 μg/mL, IPTG 1 mM, after 2.5 days",no growth; also recorded: growth is inhibited
same,growth on Plate G,[2]; [3],colonies
same,growth on plate G compared with plate D (LB/kan/ME without fosmidomycin),[2]; [4],equal
